Tests used:
Format in all cases: in vivo
Settings in all cases: 14 days after application
[1] = tested on: barnyardgrass (Echinochloa crus-galli, ECHCG); assay: Pre-emerge greenhouse herbicide activity screening, phytotoxicity rating
Description: (§1) A standard greenhouse herbicide activity screening system was used to evaluate the herbicidal efficacy and crop safety of these test compounds. Seven broadleaf weed species including redroot pigweed (Amaranthus retroflexus, AMARE), velvetleaf (Abutilon theophrasti, ABUTH), sicklepod (Cassia obtusifolia, CASOB), ivyleaf morningglory (Ipomoea hederacea, IPOHE), lambsquarters (Chenopodium album, CHEAL), common ragweed (Ambrosia artemisiifolia L., AMBEL), and cocklebur (Xanthium strumarium, XANST) were used as test species. Four grass weed species including green foxtail (Setaria viridis, SETVI), barnyardgrass (Echinochloa crus-galli, ECHCG), johnsongrass (Sorghum halepense, SORHA), and large crabgrass (Digitaria sanguinalis, DIGSA) were also used. In addition, three crop species, field corn (Zea mays L., var. Dekalb 535, CORN), soybean (Glycine max L., var. Pella 86, SOY), and upland rice (Oryza sp., var.Tebonnet, RICE) were included.
(§2) All plants were grown in 10 cm square plastic pots which were filled with a sandy loam soil mix. For pre-emerge tests, seeds were planted one day prior to application of the test compounds. For post-emerge tests, seeds were planted 8-21 days prior to the test to allow emergence and good foliage development prior to application of the test substances. At the time of the post-emerge application, plants of all species were usually at the 2-3 leaf stage of development.
(§3) All test compounds were dissolved in acetone and applied to the test units in a volume of 187 1/ha. Test materials were applied at rates ranging from 15 g ai/ha to 1000 g ai/ha using a track sprayer equipped with a TJ8001E even flow flat fan spray nozzle. Plants were arranged on a shelf so that the top of the canopy (post-emerge) or top of the soil surface (pre-emerge) was 40-45 cm below the nozzle. Pressurized air was used to force the test solution through the nozzle as it was mechanically advanced (via electrically driven chain drive) over the top of all test plants/pots. This application simulates a typical commercial field herbicide application.
(§4) In the post-emerge test, a commercial non-ionic surfactant was also included (0.25% v/v) to enhance wetting of the leaf surfaces of target plants. Immediately after application, test units of the pre-emerge applications were watered at the soil surface to incorporate the test materials. Subsequently, these test units were bottom-watered. Post-emerge test units were always bottom-watered.
(§5) At 14 days after application of the test materials, phytotoxicity ratings were recorded. A rating scale of 0-100 was used as previously described in Research Methods in Weed Science, 2nd edition, B. Truelove, Ed., Southern Weed Science Society, Auburn University, Auburn, Ala., 1977. Briefly, “0” corresponds to no damage and “100” corresponds to complete death of all plants in the test unit. This scale was used both to determine efficacy against weed species and damage to crop species. Herbicide activity data for various compounds of this invention, which are shown by compound No. in Tables I-VI, are shown in Tables VIII-IX.

[2] = tested on: common ragweed (Ambrosia artemisiifolia L., AMBEL); assay: as above
Description: as §1, §2, §3, §4, §5

[3] = tested on: green foxtail (Setaria viridis, SETVI); assay: as above
Description: as §1, §2, §3, §4, §5

[4] = tested on: ivyleaf morningglory (Ipomoea hederacea, IPOHE); assay: as above
Description: as §1, §2, §3, §4, §5

[5] = tested on: johnsongrass (Sorghum halepense, SORHA); assay: as above
Description: as §1, §2, §3, §4, §5

[6] = tested on: lambsquarters (Chenopodium album, CHEAL); assay: as above
Description: as §1, §2, §3, §4, §5

[7] = tested on: large crabgrass (Digitaria sanguinalis, DIGSA); assay: as above
Description: as §1, §2, §3, §4, §5

[8] = tested on: redroot pigweed (Amaranthus retroflexus, AMARE); assay: as above
Description: as §1, §2, §3, §4, §5

[9] = tested on: sicklepod (Cassia obtusifolia, CASOB); assay: as above
Description: as §1, §2, §3, §4, §5

[10] = tested on: velvetleaf (Abutilon theophrasti, ABUTH); assay: as above
Description: as §1, §2, §3, §4, §5

[11] = tested on: field corn (Zea mays L., var. Dekalb 535, CORN); assay: Pre-emerge greenhouse screening, crop safety (phytotoxicity rating)
Description: as §1, §2, §3, §4, §5

[12] = tested on: soybean (Glycine max L., var. Pella 86, SOY); assay: as above
Description: as §1, §2, §3, §4, §5

[13] = tested on: upland rice (Oryza sp., var.Tebonnet, RICE); assay: as above
Description: as §1, §2, §3, §4, §5

[14] = tested on: barnyardgrass (Echinochloa crus-galli, ECHCG); assay: Post-emerge greenhouse herbicide activity screening, phytotoxicity rating
Description: as §1, §2, §3, §4, §5

[15] = tested on: common ragweed (Ambrosia artemisiifolia L., AMBEL); assay: as above
Description: as §1, §2, §3, §4, §5

[16] = tested on: green foxtail (Setaria viridis, SETVI); assay: as above
Description: as §1, §2, §3, §4, §5

[17] = tested on: ivyleaf morningglory (Ipomoea hederacea, IPOHE); assay: as above
Description: as §1, §2, §3, §4, §5

[18] = tested on: johnsongrass (Sorghum halepense, SORHA); assay: as above
Description: as §1, §2, §3, §4, §5

[19] = tested on: lambsquarters (Chenopodium album, CHEAL); assay: as above
Description: as §1, §2, §3, §4, §5

[20] = tested on: large crabgrass (Digitaria sanguinalis, DIGSA); assay: as above
Description: as §1, §2, §3, §4, §5

[21] = tested on: redroot pigweed (Amaranthus retroflexus, AMARE); assay: as above
Description: as §1, §2, §3, §4, §5

[22] = tested on: sicklepod (Cassia obtusifolia, CASOB); assay: as above
Description: as §1, §2, §3, §4, §5

[23] = tested on: velvetleaf (Abutilon theophrasti, ABUTH); assay: as above
Description: as §1, §2, §3, §4, §5

[24] = tested on: field corn (Zea mays L., var. Dekalb 535, CORN); assay: Post-emerge greenhouse screening, crop safety / corn selectivity (phytotoxicity rating)
Description: as §1, §2, §3, §4, §5

[25] = tested on: soybean (Glycine max L., var. Pella 86, SOY); assay: Post-emerge greenhouse screening, crop safety (phytotoxicity rating)
Description: as §1, §2, §3, §4, §5

[26] = tested on: upland rice (Oryza sp., var.Tebonnet, RICE); assay: as above
Description: as §1, §2, §3, §4, §5

Fc1cc(Cl)c(Oc2ncccn2)cc1-c1nn2c(c1Cl)CCCC2 [Compound 6-1, 3-Chloro-2-[4-chloro-2-fluoro-5-(2-pyrimidinyloxy)phenyl]-4,5,6,7-tetrahydro-pyrazolo[1,5-a]pyridine]
ECHCG phytotoxicity rating (0-100 scale) ([1]; 125 g ai/ha): 99 | ECHCG phytotoxicity rating (0-100 scale) ([1]; 250 g ai/ha): 100 | AMBEL phytotoxicity rating (0-100 scale) ([2]; 125 g ai/ha): 100 | AMBEL phytotoxicity rating (0-100 scale) ([2]; 250 g ai/ha): 100 | SETVI phytotoxicity rating (0-100 scale) ([3]; 125 g ai/ha): 100 | SETVI phytotoxicity rating (0-100 scale) ([3]; 250 g ai/ha): 100 | IPOHE phytotoxicity rating (0-100 scale) ([4]; 125 g ai/ha): 99 | IPOHE phytotoxicity rating (0-100 scale) ([4]; 250 g ai/ha): 100 | SORHA phytotoxicity rating (0-100 scale) ([5]; 125 g ai/ha): 100 | SORHA phytotoxicity rating (0-100 scale) ([5]; 250 g ai/ha): 100 | CHEAL phytotoxicity rating (0-100 scale) ([6]; 125 g ai/ha): 100 | CHEAL phytotoxicity rating (0-100 scale) ([6]; 250 g ai/ha): 100 | DIGSA phytotoxicity rating (0-100 scale) ([7]; 125 g ai/ha): 100 | DIGSA phytotoxicity rating (0-100 scale) ([7]; 250 g ai/ha): 100 | AMARE phytotoxicity rating (0-100 scale) ([8]; 125 g ai/ha): 100 | AMARE phytotoxicity rating (0-100 scale) ([8]; 250 g ai/ha): 100 | CASOB phytotoxicity rating (0-100 scale) ([9]; 125 g ai/ha): 100 | CASOB phytotoxicity rating (0-100 scale) ([9]; 250 g ai/ha): 100 | ABUTH phytotoxicity rating (0-100 scale) ([10]; 125 g ai/ha): 100 | ABUTH phytotoxicity rating (0-100 scale) ([10]; 250 g ai/ha): 100 | CORN crop damage, phytotoxicity rating (0-100 scale) ([11]; 125 g ai/ha): 40 | CORN crop damage, phytotoxicity rating (0-100 scale) ([11]; 250 g ai/ha): 50 | SOY crop damage, phytotoxicity rating (0-100 scale) ([12]; 125 g ai/ha): 25 | SOY crop damage, phytotoxicity rating (0-100 scale) ([12]; 250 g ai/ha): 60 | RICE crop damage, phytotoxicity rating (0-100 scale) ([13]; 125 g ai/ha): 85 | RICE crop damage, phytotoxicity rating (0-100 scale) ([13]; 250 g ai/ha): 95 | ECHCG phytotoxicity rating (0-100 scale) ([14]; 125 g ai/ha): 90 | ECHCG phytotoxicity rating (0-100 scale) ([14]; 250 g ai/ha): 100 | AMBEL phytotoxicity rating (0-100 scale) ([15]; 125 g ai/ha): 85 | AMBEL phytotoxicity rating (0-100 scale) ([15]; 250 g ai/ha): 90 | SETVI phytotoxicity rating (0-100 scale) ([16]; 125 g ai/ha): 100 | SETVI phytotoxicity rating (0-100 scale) ([16]; 250 g ai/ha): 100 | IPOHE phytotoxicity rating (0-100 scale) ([17]; 125 g ai/ha): 100 | IPOHE phytotoxicity rating (0-100 scale) ([17]; 250 g ai/ha): 100 | SORHA phytotoxicity rating (0-100 scale) ([18]; 125 g ai/ha): 75 | SORHA phytotoxicity rating (0-100 scale) ([18]; 250 g ai/ha): 95 | CHEAL phytotoxicity rating (0-100 scale) ([19]; 125 g ai/ha): 100 | CHEAL phytotoxicity rating (0-100 scale) ([19]; 250 g ai/ha): 100 | DIGSA phytotoxicity rating (0-100 scale) ([20]; 125 g ai/ha): 90 | DIGSA phytotoxicity rating (0-100 scale) ([20]; 250 g ai/ha): 98 | AMARE phytotoxicity rating (0-100 scale) ([21]; 125 g ai/ha): 100 | AMARE phytotoxicity rating (0-100 scale) ([21]; 250 g ai/ha): 100 | CASOB phytotoxicity rating (0-100 scale) ([22]; 125 g ai/ha): 100 | CASOB phytotoxicity rating (0-100 scale) ([22]; 250 g ai/ha): 100 | ABUTH phytotoxicity rating (0-100 scale) ([23]; 125 g ai/ha): 100 | ABUTH phytotoxicity rating (0-100 scale) ([23]; 250 g ai/ha): 100 | CORN crop damage, phytotoxicity rating (0-100 scale) ([24]; 125 g ai/ha): 10 | CORN crop damage, phytotoxicity rating (0-100 scale) ([24]; 250 g ai/ha): 20 | SOY crop damage, phytotoxicity rating (0-100 scale) ([25]; 125 g ai/ha): 95 | SOY crop damage, phytotoxicity rating (0-100 scale) ([25]; 250 g ai/ha): 100 | RICE crop damage, phytotoxicity rating (0-100 scale) ([26]; 125 g ai/ha): 90 | RICE crop damage, phytotoxicity rating (0-100 scale) ([26]; 250 g ai/ha): 95

From patent US6613718B2, “Aryl ether derivatives and processes for their preparation and herbicidal and desiccant compositions containing them” (Ishihara Sangyo Kaisha, Ltd., priority 2001, dated 2003)
